For this assay, the system named is CEM cells HIV-1 protection, formazan growth assay. The experiment in a line: NCI AIDS Antiviral Assay. The following applies: for IC50: measured here: growth of uninfected CEM cells. The method, boiled down: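 Protection of CEM cells against HIV-1 was scored from cell growth (soluble formazan) across five concentrations, with parallel uninfected cells. Lack of protection may reflect toxicity.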

The source made the active and inactive calls.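 How the source made its calls: active means compounds giving half or more protection of infected cells from virus-caused growth loss, again on retest; inactive means the rest.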

With `N#Cc1ccc(C2ON=C(c3ccccc3)N2C23CC4CC(CC(C4)C2)C3)cc1` (stereo unspecified), the EC50 (in general, the midpoint of the concentration-response curve) was greater than 200 µM and the IC50 (usually the concentration that inhibits the measured activity by half) came to 151 µM.

For the molecule `CCOC(=O)NC(Nc1cccc(F)c1)(C(F)(F)F)C(F)(F)F`, the EC50 is greater than 200 µM and the IC50 was greater than 200 µM.

As to `COc1cc2oc(=O)cc(C)c2c(OC)c1O`, the outcome was inactive.

With `CNC(=O)c1ccc(C(=O)NCCCCCN(O)C(=O)CCC(=O)NCCCCCN(O)C(=O)CCC(=O)NCCCCCN(O)C(C)=O)c(O)c1O`, the EC50 was greater than 100 µM and the IC50 turned out to be 69.2 µM.

Take `Cn1c2ccccc2c(=S)c2c(O)cc3c(c21)C=CC(C)(C)O3`: the EC50 was greater than 200 µM and the IC50 is greater than 200 µM.

With `C#Cc1cccc(N2C(=O)CC(=P(c3ccccc3)(c3ccccc3)c3ccccc3)C2=O)c1`, the EC50 is greater than 11.2 µM and the IC50 is greater than 11.2 µM.

Consider `COc1ccc(O[C@H](CO)C[C@@H]2COC(C)(C)O2)cc1`, for which the EC50 is greater than 200 µM and the IC50 was greater than 200 µM.

With `O=C1/C(=C/c2cccc([N+](=O)[O-])c2)CCCc2ccccc21`, the EC50 was greater than 200 µM and the IC50 amounted to 6.31 µM.

On to `CCC(=O)NCC1(c2c[nH]c3ccccc23)SCCS1`, for which the result was inactive.

On to `CCCCCC(/C=N/Nc1ccccc1)C(O)(C(F)(F)F)C(F)(F)F` (stereo unspecified), for which the EC50 is greater than 200 µM and the IC50 was found to be 105 µM.

For `Cn1c(=O)c2nc(N3CCOCC3)cnc2n(C)c1=O`, the EC50 was greater than 200 µM and the IC50 was greater than 200 µM.

With `CC1(C)C2CC[C@]3(C)C(C(=O)C=C4[C@@H]5C[C@@](C)(C(=O)O)CC[C@]5(C)CCC43C)[C@@]2(C)CC[C@@H]1OC1OC(C(=O)O)C(O)C(O)C1OC1OC(C(=O)O)C(O)C(O)C1O` (stereo partly specified) (tested in a mixture with another compound), the result was inactive.

As to `COc1ccc(-c2cc(=O)c3c(O)c(O)c(OC)cc3o2)cc1O`, the EC50 is greater than 550 µM and the IC50 turned out to be 240 µM.

With `COC1(C(C)(C)C)C=C(C(C)(C)C)P(=O)(O)O1` (stereo unspecified), the EC50 is greater than 200 µM and the IC50 was greater than 200 µM.

`CCN(CC)C(=S)N=N/C(C)=C1/C=CC=CN1O`: the EC50 is greater than 200 µM and the IC50 turned out to be 1.1 µM.

Regarding `N=C(/C=C/c1ccc(-c2cn3cc(/C=C/C(=N)N4CCCC4)ccc3n2)cc1)N1CCCC1`, the EC50 was 25.1 µM and the IC50 came out at 64.6 µM.

For `Cn1c2ccccc2n2c(=O)c(-c3ccc(Cl)cc3)nnc12`, the EC50 was greater than 200 µM and the IC50 is greater than 200 µM.

For the molecule `CCCCNS(=O)(=O)c1ccc(-c2c3nc(c(-c4ccc(S(=O)(=O)NCCCC)cc4)c4ccc([nH]4)c(-c4ccc(S(=O)(=O)NCCCC)cc4)c4nc(c(-c5ccc(S(=O)(=O)NCCCC)cc5)c5ccc2[nH]5)C=C4)C=C3)cc1`, the EC50 was greater than 200 µM and the IC50 was greater than 200 µM.

Take `C=C(C)[C@@H]1CC[C@]2(COC(=O)CC(C)(CC)CC(=O)O)CC[C@]3(C)[C@H](CC[C@@H]4[C@@]5(C)CC[C@H](OC(=O)CC(C)(CC)CC(=O)O)C(C)(C)[C@@H]5CC[C@]43C)[C@@H]12` (stereo partly specified): the EC50 was greater than 200 µM and the IC50 is 9.55 µM.

On to `CN1C(=O)C(O)(C2=C3OCOC3=CC(=O)C2=O)c2ccccc21` (stereo unspecified), for which the EC50 is greater than 200 µM and the IC50 amounted to 32.4 µM.

On to `CC1=C(O)C(=O)C=C2C1=CC=C1[C@@]2(C)CC[C@@]2(C)C3C[C@@H](C)C(=O)[C@@H](O)[C@]3(C)CC[C@]12C` (stereo partly specified), for which the EC50 is greater than 1.26 µM and the IC50 came to 0.2 µM.

Turning to `N#Cc1c(N2CCCC2)ncn(-c2ccccc2)c1=S`, the EC50 was greater than 200 µM and the IC50 was greater than 200 µM.

In the case of `O=C(/C(=C/c1cccs1)c1ccccc1)c1ccccc1`, the EC50 is greater than 200 µM and the IC50 was greater than 200 µM.

For `COc1ccc2[nH]c3c(c2c1)[C@H](c1ccccc1)C[C@@H]1C(=O)N(c2ccccc2)C(=O)[C@H]31`, the result was inactive.

As to `O=C(O)C12C3C4C1C1C2C3C1(Br)C41OCCO1` (stereo unspecified), the EC50 was greater than 832 µM and the IC50 is greater than 832 µM.

As for `CN1c2ccccc2N(C)C23N(C)c4ccccc4N(C)C12N(C)c1ccccc1N3C` (stereo unspecified), the EC50 was greater than 43.7 µM and the IC50 is greater than 43.7 µM.

Regarding `O=c1n(-c2ccccc2)c(=O)n2c(-c3ccccc3)c(-c3ccccc3)n12`, the EC50 was greater than 200 µM and the IC50 amounted to 30.9 µM.

Regarding `Cn1cnc([N+](=O)[O-])c1Sc1nnc(-c2cccnc2)n1C`, the EC50 was greater than 794 µM and the IC50 was 6.61 µM.

`CCCCCc1cc2cc(O)cc(Oc3c(O)cc(O)c(C(=O)O)c3CCCCC)c2c(=O)o1`: the EC50 is greater than 200 µM and the IC50 was 34.7 µM.

Consider `CCCCCCC[CH2][Sn]1([CH2]CCCCCCC)[O]C(=O)c2cccnc2[S]1`, for which the EC50 is 0.794 µM and the IC50 was 91.2 µM.

Turning to `CCc1c(CNC2=NCCN2)c(CC)c(CNC2=NCCN2)c(CC)c1CNC1=NCCN1`, the EC50 was greater than 200 µM and the IC50 was greater than 200 µM.

For `O=C1c2ccccc2CCCC12OC2c1cccnc1` (stereo unspecified), the EC50 is greater than 257 µM and the IC50 amounted to 151 µM.

In the case of `CC(=O)N1C(c2[nH]c3ccccc3c2Cc2ccccc2)CCN1c1ccccc1` (stereo unspecified), the EC50 was greater than 200 µM and the IC50 amounted to 102 µM.

`Cn1cc(NC(=O)c2nc(NC(=O)c3nc(NC(=O)/C=C/C(=O)Nc4cn(C)c(C(=O)Nc5cn(C)c(C(=O)Nc6cn(C)c(C(=O)NCCC(=N)N)n6)n5)n4)cn3C)cn2C)nc1C(=O)NCCC(=N)N`: the EC50 is greater than 50.1 µM and the IC50 is 8.51 µM.

For `CCOC(=O)/C(C#N)=C(O)/C(=C/c1ccccc1Cl)NC(=O)c1ccccc1`, the EC50 was greater than 631 µM and the IC50 is greater than 631 µM.

Consider `O=C(O)c1cc(Br)cc(SSc2cc(Br)cc(C(=O)O)c2O)c1O`, for which the EC50 is 102 µM and the IC50 was 107 µM.

For the molecule `C#CCN(N=O)C(=O)NCCCCC(NC(=O)OCc1ccccc1)C(=O)OCc1ccccc1` (stereo unspecified), the EC50 is greater than 28.2 µM and the half-maximal inhibitory concentration (IC50) is greater than 28.2 µM.

On to `N#C/C(=C(\c1ccccc1)c1ccccn1)c1ccccc1`, for which the EC50 was greater than 20 µM and the IC50 worked out at 1.1 µM.

`COCC1OC(N2C(=O)NC(=O)[C@@H]3C=C4CCCCC4=C[C@@H]32)C(OC)C1OC` (stereo partly specified): the EC50 was greater than 200 µM and the IC50 is 105 µM.

Consider `C=C(C)C(C(=O)OC(c1ccccc1)c1ccccc1)N1C(=O)C(NC(=O)COc2ccccc2)C1SSc1nc2ccccc2s1` (stereo unspecified), for which the EC50 is greater than 200 µM and the IC50 turned out to be 8.32 µM.

For the molecule `O=C1CSC(Cc2nc3ccccc3[nH]2)=N1`, the EC50 was greater than 30.9 µM and the IC50 is greater than 30.9 µM.

On to `Nc1ncnc2c1S(=O)(=O)NCN2`, for which the EC50 is greater than 178 µM and the IC50 was greater than 178 µM.

On to `CC1=C(C)CP(=O)(c2ccccc2)C1`, for which the EC50 was 0.0631 µM and the IC50 is greater than 200 µM.

For `CN(C)c1ccc(/C=C(\C#N)c2cccc(Br)c2)cc1`, the EC50 was greater than 200 µM and the IC50 amounted to 0.0631 µM.

On to `O=S(=O)(c1ccc(I)cc1)c1ccc(I)cc1`, for which the outcome was inactive.

With `C1CCN2CC3CC(CN4CCCCC34)C2C1` (stereo unspecified), the EC50 is greater than 759 µM and the IC50 was greater than 759 µM.

For `CC(=O)OC1CC2(c3ccccc3)C(=O)c3ccccc3N2O1` (stereo unspecified), the EC50 is greater than 115 µM and the IC50 is greater than 115 µM.

For `C=C1CCc2occ(C)c2C2C1C1=C(CC(C)C1=O)C1OC12C` (stereo unspecified), the EC50 was greater than 219 µM and the IC50 was greater than 219 µM.

On to `CC[N+](C)(CC)CCC[N+]12CCC(CC1)CC2`, for which the EC50 is greater than 631 µM and the IC50 is greater than 631 µM.

For the molecule `CCOC(=N)CC(=O)Nc1ccccc1`, the EC50 is greater than 40.7 µM and the IC50 was greater than 40.7 µM.

As to `Nc1ccc(C(=O)NN2C(=O)C(Cl)C2c2ccccc2O)cc1` (stereo unspecified), the EC50 is greater than 200 µM and the IC50 was determined as 29.5 µM.

With `O=C(Nc1ccc([N+](=O)[O-])cc1)C1C(=O)C(=O)N(c2ccc([N+](=O)[O-])cc2)C1=O` (stereo unspecified), the EC50 is greater than 234 µM and the IC50 was greater than 234 µM.

On to `CN1CCN(C)P1c1ccccc1`, for which the EC50 was greater than 1290 µM and the IC50 was greater than 1290 µM.

Turning to `CC#N.CC#N.COC(=O)[C@@H]1CN(C(=O)c2ccccc2)C(=O)[N-]1.COC(=O)[C@@H]1CN(C(=O)c2ccccc2)C(=O)[N-]1.COC(=O)[C@@H]1CN(C(=O)c2ccccc2)C(=O)[N-]1.COC(=O)[C@@H]1CN(C(=O)c2ccccc2)C(=O)[N-]1.[Rh+2].[Rh+2]`, the EC50 is 10.7 µM and the IC50 was found to be 87.1 µM.

In the case of `COc1ccc2c(c1)nc1n2C(c2c(F)cccc2Cl)SC1` (stereo unspecified), the EC50 was greater than 200 µM and the IC50 worked out at 4.17 µM.

Take `O=C(NO)C(=O)Nc1ccc(Cl)cc1[N+](=O)[O-]`: the EC50 is greater than 100 µM and the IC50 is greater than 100 µM.

For `C[N+]1(C)C/C(=C\c2ccc(O)cc2)C(=O)/C(=C/c2ccc(O)cc2)C1`, the EC50 was greater than 77.6 µM and the IC50 came to 56.2 µM.

Turning to `COC(=O)[C@H](C)NC(=O)[C@H](NS(=O)(=O)c1nc2ccccc2s1)c1ccccc1`, the EC50 is greater than 200 µM and the IC50 was found to be 37.2 µM.

In the case of `O=C1CC([C@H](NC(=O)OCc2ccccc2)C(=O)O)ON1` (stereo partly specified), the result was inactive.

On to `CCC/C=C(/Br)[Si](C)(C)C`, for which the EC50 is greater than 427 µM and the IC50 came out at 372 µM.

Consider `O=[N+]([O-])C1CC/C(=N/O)c2nonc21` (stereo unspecified), for which the EC50 is greater than 200 µM and the IC50 amounted to 123 µM.

Take `Cc1ccccc1/C=C/c1csnn1`: the EC50 is greater than 129 µM and the IC50 is greater than 129 µM.

For `COc1cc(C2c3cc4c(cc3OC(NNc3ccccc3)C2C)OCO4)cc(OC)c1OC` (stereo unspecified), the EC50 was greater than 200 µM and the IC50 amounted to 3.89 µM.

As for `Cn1c2ccccc2c2oc(CO)cc(=O)c21`, the EC50 is greater than 200 µM and the IC50 came out at 126 µM.

Turning to `Cc1cc(-c2ccccc2)c2ccc3c(-c4ccccc4)cc(C)nc3c2n1.Cc1cc(-c2ccccc2)c2ccc3c(-c4ccccc4)cc(C)nc3c2n1.O=C1OC(C(O)C[O-])C(O)=C1O.[Cu+]`, the EC50 is greater than 25.1 µM and the half-inhibitory concentration (IC50) worked out at 0.708 µM.

Regarding `COc1ccc(CNc2nc3cc(C(F)(F)F)ccc3nc2C(=O)O)cc1`, the EC50 was greater than 200 µM and the IC50 was 38.9 µM.

The record behind these values is PubChem BioAssay AID179 (DTP/NCI, 2004).
